Experiment [1] addresses T1, SIRT3 (Homo sapiens, UniProt Q9NTG7).
T1 construct: purchased Enzo Life Sciences BML-AK557-0001
T1 sequence (Q9NTG7 1-399): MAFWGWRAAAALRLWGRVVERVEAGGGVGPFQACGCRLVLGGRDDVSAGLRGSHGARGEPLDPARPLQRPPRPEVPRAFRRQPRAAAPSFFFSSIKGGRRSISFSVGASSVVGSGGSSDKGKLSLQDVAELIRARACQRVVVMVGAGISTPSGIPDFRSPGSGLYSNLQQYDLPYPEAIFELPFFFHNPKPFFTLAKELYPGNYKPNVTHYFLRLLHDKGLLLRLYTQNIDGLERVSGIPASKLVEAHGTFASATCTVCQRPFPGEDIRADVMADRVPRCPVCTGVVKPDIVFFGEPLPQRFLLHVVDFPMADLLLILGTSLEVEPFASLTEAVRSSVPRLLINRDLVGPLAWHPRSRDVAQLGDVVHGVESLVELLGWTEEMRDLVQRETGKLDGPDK
The experiment can be described thus: Fluor de Lys (FDL) fluorimetric SIRT3 deacetylase activity assay. In kind it is biochemical. As for the experimental part: The SIRT3 activity was assessed using the Enzo Life Sciences kit (BML-AK557-0001) per the protocol provided. A 10 μM fluoro-acetylated p53 peptide and 500 μM NAD^+ were added to SIRT3 assay buffer, incubated with test compounds and 0.5 μg recombinant SIRT3 at 37 °C for 30 min. In the mass spectrometry (MS) assay, 5 μM hSirt3 was reacted with 0.25 mM peptide and 1.25 mM NAD^+, with or without 10 μM SKLB-11A in 2% DMSO, at 37 °C. Controls included 2% DMSO without SKLB-11A. The reaction was halted at defined intervals using 5 mM nicotinamide, and the mixture then underwent filtration and subjected to nano LC-MS/MS analysis. Acetylated Peptide: MnSOD-K122 ([…]-Ac).

The target of another experiment is T2, SIRT5 (Homo sapiens, UniProt Q9NXA8).
T2 sequence (Q9NXA8 37-310): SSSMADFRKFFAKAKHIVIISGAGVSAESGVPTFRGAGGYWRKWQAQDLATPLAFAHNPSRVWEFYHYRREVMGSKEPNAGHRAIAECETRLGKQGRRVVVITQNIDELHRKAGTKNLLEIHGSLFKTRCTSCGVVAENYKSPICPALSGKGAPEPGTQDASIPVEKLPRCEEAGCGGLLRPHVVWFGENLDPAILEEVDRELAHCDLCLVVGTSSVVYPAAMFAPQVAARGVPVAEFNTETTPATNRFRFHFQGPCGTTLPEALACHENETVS
The experiment can be described thus: SPR binding to SIRT5. As to the method: The affinity of SKLB-11A for SIRT1, SIRT2, SIRT3, SIRT5, and SIRT6 was determined using a Reichert 4SPR system (Reichert Technologies, Depew, NY, USA). Proteins at 200 μg/mL were immobilized on a dextran-coated sensor chip (13206066) until reaching ≥12,000 response units (RUs). A dual-flow channel setup was used, reserving one channel for blank controls. SKLB-11A was introduced at varying concentrations for binding and subsequent dissociation kinetic analysis. Data acquisition was at 25 °C utilizing a PBST running buffer (pH 7.4). The equilibrium dissociation constant (K d) was computed from steady-state affinity measurements using TraceDrawer software.
(In general: Surface plasmon resonance follows binding to a sensor surface in real time, without labels.)

Experiment [2] addresses T3, SIRT3 (Rattus norvegicus, UniProt A0A8I5XWT5).
T3 construct: endogenous in cells; host or cells: H9c2
T3 sequence (A0A8I5XWT5 1-347): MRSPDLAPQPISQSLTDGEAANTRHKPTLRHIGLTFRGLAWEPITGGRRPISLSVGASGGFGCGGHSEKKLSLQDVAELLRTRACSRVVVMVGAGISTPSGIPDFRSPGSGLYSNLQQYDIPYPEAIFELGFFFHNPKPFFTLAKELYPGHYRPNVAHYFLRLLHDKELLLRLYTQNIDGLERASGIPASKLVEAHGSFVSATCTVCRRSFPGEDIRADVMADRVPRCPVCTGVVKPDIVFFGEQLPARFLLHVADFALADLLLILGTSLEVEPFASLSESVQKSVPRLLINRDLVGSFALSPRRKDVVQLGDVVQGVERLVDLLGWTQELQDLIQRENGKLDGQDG
The experiment can be described thus: CETSA of SIRT3 in H9c2 cells. Type of experiment: cell-based. The settings on record: 10 μM, 6 h. As for the experimental part: The Cellular Thermal Shift Assay (CETSA) leverages the principle of thermal stabilization of proteins upon ligand binding. H9c2 cells were seeded on 100 mm culture dishes and allowed to adhere for 12 h. Following attachment, cells were treated with SKLB-11A (10 μM) for 6 h, after which they were enzymatically detached using trypsin and harvested. The cell suspension was partitioned into seven equal aliquots, which were then exposed to a range of thermal conditions (37, 41, 45, 49, 53, 57, and 61 °C) for 3 min each. Post-thermal treatment, rapid freezing in liquid nitrogen was performed thrice to ensure cell lysis. The lysates were then subjected to centrifugation at 12,000 rpm for 20 min, and the levels of SIRT3 were analyzed via Western blotting.

For experiment [3], the system named is acetylated MnSOD (K68 and K122) in H9c2 cells. The experiment can be described thus: Western blot of MnSOD, SIRT3 and acetylated MnSOD in H9c2 cells. In kind it is cell-based. The following applies: 24 h. As for the experimental part: Proteomic analysis was conducted on H9c2 cells and murine cardiac tissues. Protein lysates were resolved via SDS-PAGE and transferred onto PVDF membranes. […] After washing, membranes were probed with secondary antibodies for 1 h at room temperature. Detection was facilitated by an ECL kit, with densitometry performed using ImageJ software to quantify protein expression, normalized against controls. The antibodies employed included: anti-SIRT3 (2627, Cell Signaling Technology), anti-acetylated lysine (9441, CST), anti-Ac.K68-MnSOD2 (ab137037, Abcam), anti-Ac.K122-MnSOD2 (ab214675, Abcam), anti-MnSOD2 (13141, CST), anti-LC3B (3868, CST), anti-p62 (8025, CST), anti-PINK1 (6946, CST), anti-Parkin (4211, CST), and anti-β-actin (ab8226, Abcam).
On the technique in general: Immunoblotting shows a protein as a band on a membrane.

Experiment [4] concerns myocardial ischemia/reperfusion (I/R) injury model. The experiment can be described thus: Mouse model of myocardial I/R injury. In kind it is in vivo, C57BL/6J mice.

From article PMC12123458, “Unraveling Small Molecule-Mediated Sirtuin 3 Activation at a Distinct Binding Site for Cardioprotective Therapies” (ACS Central Science, 2025) come the findings set out here.

By EC50 is commonly meant the midpoint of the concentration-response curve. With `COC(=O)c1c(N)n(Cc2ccc(F)cc2)c2nc3ccccc3nc12` [SKLB-11A, Methyl 2-amino-1-(4-fluorobenzyl)-1H-pyrrolo[2,3-b]quinoxaline-3-carboxylate], at SIRT3 [1] (100 µM, FDL deacetylation assay, compared to the control group, mean ± SD), the “% effect @ 100 µM of SIRT3” value is “maintained or enhanced the activity”. At SIRT3 [1] (0.5 h, 100 µM, FDL deacetylation assay, compared to the control group, mean ± SD, read-out: % effect @ 100 µM of SIRT3), the activity at 100 µM stood at 188.1 ± 1.58%. The “SIRT3 activation compared with other SIRT3 activators” value at SIRT3 [1] (FDL assay) is recorded as “better SIRT3 activation”. Further, the EC50 on SIRT3 [1] (FDL assay, read-out: EC50, SIRT3 deacetylation activity) stood at 22 ± 1.57 µM. For the same molecule, the “binding to SIRT5” value on SIRT5 was “no binding”. Also, the “thermal stability of SIRT3 (CETSA)” value on SIRT3 [2] was “effectively binds to SIRT3”. Further, in experiment [3], the SIRT3 protein levels result is given as “did not alter SIRT3 protein levels”; the “deacetylation of MnSOD at K122 and K68” value was “induced deacetylation at K122 and K68”. Moreover, in experiment [4] (20 mg/kg ig, 24 h after I/R surgery), the “I/R-induced elevations in serum LDH, CK-MB, BNP” value is given as “partially reversed”. In addition, in experiment [4] (20 mg/kg ig, Evans blue/TTC, 24 h after I/R, vs I/R group), the infarct size entry is “significant reduction in infarcted areas”. For the same molecule, in experiment [4] (20 mg/kg ig, Masson's trichrome, 28 d after I/R), the I/R-induced cardiac fibrosis entry was “markedly reduced”. Further, in experiment [4] (20 mg/kg/day, ig, 1 week, I/R mice), the “cardiac function (EF and FS)” value is listed as “restored cardiac function”.
